Experimental data as given in patent publication US9790228B2, “Heterocyclic kinase inhibitors” (Intellikine LLC, priority 2008, dated 2017).

Key:
[1] = target: p110γ (Homo sapiens (Human), UniProt P48736); assay: PI3K γ inhibition assay (TLC lipid kinase or HTRF); format: biochemical
Procedure, shortened: (§1)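 IC50 from TLC lipid kinase assay (25 mM HEPES pH 7.4, 10 mM MgCl2, 100 μg/ml phosphatidylinositol, 10 or 100 μM γ-32P-ATP, 5 min RT, phosphorimager) at 10–12 two-fold dilutions, or HTRF (10 μM PIP2, 10 μM ATP, 1 h RT) measuring PIP3 by TR-FRET; 2% DMSO final.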

[2] = target: p110α/p85α (Homo sapiens (Human), UniProt P42336); assay: PI3K α inhibition assay (TLC lipid kinase or HTRF); format: biochemical
Chain of p110α/p85α (P42336 whole entry): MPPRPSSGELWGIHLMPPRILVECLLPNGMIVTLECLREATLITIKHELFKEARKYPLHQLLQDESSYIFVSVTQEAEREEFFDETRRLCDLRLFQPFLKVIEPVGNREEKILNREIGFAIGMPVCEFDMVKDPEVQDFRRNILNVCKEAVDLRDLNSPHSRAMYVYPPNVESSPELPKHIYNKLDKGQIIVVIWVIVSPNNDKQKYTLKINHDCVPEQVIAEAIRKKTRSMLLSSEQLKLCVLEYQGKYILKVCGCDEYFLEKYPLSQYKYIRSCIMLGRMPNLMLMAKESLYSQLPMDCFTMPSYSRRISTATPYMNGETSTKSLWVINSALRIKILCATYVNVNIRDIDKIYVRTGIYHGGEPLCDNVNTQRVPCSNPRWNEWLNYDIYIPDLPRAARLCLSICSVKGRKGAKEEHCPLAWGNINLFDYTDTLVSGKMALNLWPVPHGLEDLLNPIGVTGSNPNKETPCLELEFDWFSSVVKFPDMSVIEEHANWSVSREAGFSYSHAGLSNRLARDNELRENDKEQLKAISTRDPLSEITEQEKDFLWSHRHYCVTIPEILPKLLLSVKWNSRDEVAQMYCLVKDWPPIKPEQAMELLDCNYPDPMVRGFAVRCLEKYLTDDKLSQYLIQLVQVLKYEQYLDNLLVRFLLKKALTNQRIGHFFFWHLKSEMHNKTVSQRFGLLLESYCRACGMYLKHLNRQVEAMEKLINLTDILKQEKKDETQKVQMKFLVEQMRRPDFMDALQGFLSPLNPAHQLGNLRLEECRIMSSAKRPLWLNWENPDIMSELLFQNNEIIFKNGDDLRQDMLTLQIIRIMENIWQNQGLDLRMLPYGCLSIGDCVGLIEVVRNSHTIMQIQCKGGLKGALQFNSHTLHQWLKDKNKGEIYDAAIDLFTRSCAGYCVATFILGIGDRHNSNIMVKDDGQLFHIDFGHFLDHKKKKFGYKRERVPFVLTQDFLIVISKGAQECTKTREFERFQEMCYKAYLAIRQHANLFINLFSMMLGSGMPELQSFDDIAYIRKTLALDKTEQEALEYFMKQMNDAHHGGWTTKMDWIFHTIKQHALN
Chain of p110α/p85α (P27986 whole entry partner): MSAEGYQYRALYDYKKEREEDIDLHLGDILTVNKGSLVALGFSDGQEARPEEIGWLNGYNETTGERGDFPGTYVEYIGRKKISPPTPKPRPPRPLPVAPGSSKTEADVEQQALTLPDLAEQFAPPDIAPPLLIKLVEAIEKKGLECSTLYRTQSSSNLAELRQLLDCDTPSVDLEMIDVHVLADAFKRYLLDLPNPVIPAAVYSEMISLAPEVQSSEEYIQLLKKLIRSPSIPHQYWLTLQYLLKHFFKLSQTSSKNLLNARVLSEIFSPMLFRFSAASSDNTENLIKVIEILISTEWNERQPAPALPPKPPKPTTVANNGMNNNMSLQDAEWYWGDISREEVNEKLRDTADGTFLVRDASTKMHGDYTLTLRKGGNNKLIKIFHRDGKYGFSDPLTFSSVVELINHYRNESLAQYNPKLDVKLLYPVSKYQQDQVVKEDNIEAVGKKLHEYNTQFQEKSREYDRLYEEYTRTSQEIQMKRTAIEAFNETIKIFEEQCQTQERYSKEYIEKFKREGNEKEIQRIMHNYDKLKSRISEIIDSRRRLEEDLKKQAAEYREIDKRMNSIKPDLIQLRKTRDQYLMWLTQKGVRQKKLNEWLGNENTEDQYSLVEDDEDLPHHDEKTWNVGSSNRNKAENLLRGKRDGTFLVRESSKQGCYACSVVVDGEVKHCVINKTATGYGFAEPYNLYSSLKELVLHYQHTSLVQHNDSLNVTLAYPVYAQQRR
Procedure, shortened: as §1

[3] = test system: Balb/c splenic B cells; assay: B cell activation and proliferation assay (Alamar Blue); format: cell-based, mouse; conditions: Mus musculus, B-cell
Procedure, shortened: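 Purified Balb/c splenic B cells, 50,000/well, pretreated with compound 30 min (0.2% DMSO), then stimulated with 10 ug/ml LPS or 5 ug/ml anti-IgM F(ab′)2 plus 2 ng/ml IL4 (cocktail concentrations) for 72 h at 37 °C. Alamar Blue 5 h, fluorescence 560/590 nm; IC50/EC50 calculated.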

[4] = target: p110β/p85α (Homo sapiens, UniProt P42338); assay: PI3K β inhibition assay (TLC lipid kinase or HTRF); format: biochemical; conditions: read-out: PI3K β IC50
Chain of p110β/p85α (P42338 whole entry, looked up): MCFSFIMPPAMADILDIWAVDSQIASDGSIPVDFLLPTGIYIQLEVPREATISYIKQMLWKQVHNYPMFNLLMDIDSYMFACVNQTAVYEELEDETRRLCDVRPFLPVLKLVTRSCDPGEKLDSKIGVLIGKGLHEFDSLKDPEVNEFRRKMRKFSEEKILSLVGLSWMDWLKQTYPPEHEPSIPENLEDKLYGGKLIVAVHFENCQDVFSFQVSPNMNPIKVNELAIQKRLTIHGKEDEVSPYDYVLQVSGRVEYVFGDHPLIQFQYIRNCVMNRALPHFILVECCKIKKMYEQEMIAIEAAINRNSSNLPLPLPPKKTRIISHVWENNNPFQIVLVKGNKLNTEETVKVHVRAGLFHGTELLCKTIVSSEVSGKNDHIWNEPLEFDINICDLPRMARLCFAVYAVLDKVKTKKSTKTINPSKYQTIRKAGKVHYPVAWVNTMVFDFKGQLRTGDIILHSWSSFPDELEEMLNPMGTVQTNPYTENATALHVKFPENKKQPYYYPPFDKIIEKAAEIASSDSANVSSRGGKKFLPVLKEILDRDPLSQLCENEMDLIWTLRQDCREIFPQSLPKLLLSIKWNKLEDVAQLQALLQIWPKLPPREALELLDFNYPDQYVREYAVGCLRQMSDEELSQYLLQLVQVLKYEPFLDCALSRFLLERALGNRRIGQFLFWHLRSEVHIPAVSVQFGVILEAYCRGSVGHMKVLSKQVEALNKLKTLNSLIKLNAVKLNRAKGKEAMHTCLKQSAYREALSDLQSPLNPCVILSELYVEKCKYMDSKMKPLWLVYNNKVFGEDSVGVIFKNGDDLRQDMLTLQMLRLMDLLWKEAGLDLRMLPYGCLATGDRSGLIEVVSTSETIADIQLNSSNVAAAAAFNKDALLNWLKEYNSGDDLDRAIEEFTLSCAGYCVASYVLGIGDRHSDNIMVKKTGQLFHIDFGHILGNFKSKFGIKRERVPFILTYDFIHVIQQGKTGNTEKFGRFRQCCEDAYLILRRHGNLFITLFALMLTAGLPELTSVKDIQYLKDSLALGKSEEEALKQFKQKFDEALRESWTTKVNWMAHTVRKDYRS
Procedure, shortened: as §1

[5] = target: p110δ/p85α (Homo sapiens (Human), UniProt O00329); assay: PI3K δ inhibition assay (TLC lipid kinase or HTRF); format: biochemical
Chain of p110δ/p85α (O00329 whole entry): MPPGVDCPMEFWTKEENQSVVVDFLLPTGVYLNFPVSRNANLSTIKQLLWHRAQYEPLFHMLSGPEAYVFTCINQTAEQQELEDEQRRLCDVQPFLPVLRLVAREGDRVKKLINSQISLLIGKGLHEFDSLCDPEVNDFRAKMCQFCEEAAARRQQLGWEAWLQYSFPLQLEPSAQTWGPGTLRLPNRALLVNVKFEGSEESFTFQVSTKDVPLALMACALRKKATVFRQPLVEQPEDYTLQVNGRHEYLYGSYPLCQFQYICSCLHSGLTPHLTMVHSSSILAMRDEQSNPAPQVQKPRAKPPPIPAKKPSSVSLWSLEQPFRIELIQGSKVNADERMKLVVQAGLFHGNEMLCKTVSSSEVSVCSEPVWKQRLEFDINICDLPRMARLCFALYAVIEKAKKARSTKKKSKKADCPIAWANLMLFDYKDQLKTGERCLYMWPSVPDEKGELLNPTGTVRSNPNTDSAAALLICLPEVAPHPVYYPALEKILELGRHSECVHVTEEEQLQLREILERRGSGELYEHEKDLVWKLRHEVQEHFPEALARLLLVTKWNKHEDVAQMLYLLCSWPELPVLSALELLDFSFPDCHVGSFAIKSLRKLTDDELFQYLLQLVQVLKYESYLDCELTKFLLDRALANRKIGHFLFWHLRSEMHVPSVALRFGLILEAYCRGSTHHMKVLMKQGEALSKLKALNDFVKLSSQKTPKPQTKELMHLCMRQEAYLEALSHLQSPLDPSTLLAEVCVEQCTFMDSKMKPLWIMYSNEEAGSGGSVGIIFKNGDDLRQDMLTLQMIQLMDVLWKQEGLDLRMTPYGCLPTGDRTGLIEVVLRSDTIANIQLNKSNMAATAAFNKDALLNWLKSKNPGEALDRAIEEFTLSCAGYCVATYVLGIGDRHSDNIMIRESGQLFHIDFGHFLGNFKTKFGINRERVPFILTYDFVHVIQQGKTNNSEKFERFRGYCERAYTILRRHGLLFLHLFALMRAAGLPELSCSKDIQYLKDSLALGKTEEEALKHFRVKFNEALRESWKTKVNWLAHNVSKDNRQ
Chain of p110δ/p85α (P27986 whole entry partner): as the sequence (P27986 whole entry partner) above
Procedure, shortened: as §1

[6] = test system: lupus disease model mice; conditions: B6.Slelz.Sle3z model; cited from earlier work
[7] = PBS pH 7.4, 24 hours, 37° C.; cited from earlier work
[8] = control compound, 5 μM; cited from earlier work
[9] = test system: PI3K/Akt/mTor signaling; assay: Kinase signaling in blood (phosflow); format: cell-based; conditions: anti-CD3 stimulated splenocytes or PBMC
Procedure: PI3K/Akt/mTor signaling is measured in blood cells using the phosflow method (Methods Enzymol. 2007; 434:131-54). The advantage of this method is that it is by nature a single cell assay so that cellular heterogeneity can be detected rather than population averages. This allows concurrent distinction of signaling states in different populations defined by other markers. Phosflow is also highly quantitative. To test the effects of one or more compounds disclosed herein, unfractionated splenocytes, or peripheral blood mononuclear cells are stimulated with anti-CD3 to initiate T-cell receptor signaling. The cells are then fixed and stained for surface markers and intracellular phosphoproteins.
Similarly, aliquots of whole blood are incubated for 15 minutes with vehicle (e.g. 0.1% DMSO) or kinase inhibitors at various concentrations, before addition of stimuli to crosslink the T cell receptor (TCR) (anti-CD3 with secondary antibody) or the B cell receptor (BCR) using anti-kappa light chain antibody (Fab′2 fragments). After approximately 5 and 15 minutes, samples are fixed (e.g. with cold 4% paraformaldehyde) and used for phosflow. […] The level of phosphrylation of kinase substrates such as Akt and S6 are then measured by incubating the fixed cells with labeled antibodies specific to the phosphorylated isoforms of these proteins. The population of cells are then analyzed by flow cytometry.

Chain of p110γ (P48736 whole entry): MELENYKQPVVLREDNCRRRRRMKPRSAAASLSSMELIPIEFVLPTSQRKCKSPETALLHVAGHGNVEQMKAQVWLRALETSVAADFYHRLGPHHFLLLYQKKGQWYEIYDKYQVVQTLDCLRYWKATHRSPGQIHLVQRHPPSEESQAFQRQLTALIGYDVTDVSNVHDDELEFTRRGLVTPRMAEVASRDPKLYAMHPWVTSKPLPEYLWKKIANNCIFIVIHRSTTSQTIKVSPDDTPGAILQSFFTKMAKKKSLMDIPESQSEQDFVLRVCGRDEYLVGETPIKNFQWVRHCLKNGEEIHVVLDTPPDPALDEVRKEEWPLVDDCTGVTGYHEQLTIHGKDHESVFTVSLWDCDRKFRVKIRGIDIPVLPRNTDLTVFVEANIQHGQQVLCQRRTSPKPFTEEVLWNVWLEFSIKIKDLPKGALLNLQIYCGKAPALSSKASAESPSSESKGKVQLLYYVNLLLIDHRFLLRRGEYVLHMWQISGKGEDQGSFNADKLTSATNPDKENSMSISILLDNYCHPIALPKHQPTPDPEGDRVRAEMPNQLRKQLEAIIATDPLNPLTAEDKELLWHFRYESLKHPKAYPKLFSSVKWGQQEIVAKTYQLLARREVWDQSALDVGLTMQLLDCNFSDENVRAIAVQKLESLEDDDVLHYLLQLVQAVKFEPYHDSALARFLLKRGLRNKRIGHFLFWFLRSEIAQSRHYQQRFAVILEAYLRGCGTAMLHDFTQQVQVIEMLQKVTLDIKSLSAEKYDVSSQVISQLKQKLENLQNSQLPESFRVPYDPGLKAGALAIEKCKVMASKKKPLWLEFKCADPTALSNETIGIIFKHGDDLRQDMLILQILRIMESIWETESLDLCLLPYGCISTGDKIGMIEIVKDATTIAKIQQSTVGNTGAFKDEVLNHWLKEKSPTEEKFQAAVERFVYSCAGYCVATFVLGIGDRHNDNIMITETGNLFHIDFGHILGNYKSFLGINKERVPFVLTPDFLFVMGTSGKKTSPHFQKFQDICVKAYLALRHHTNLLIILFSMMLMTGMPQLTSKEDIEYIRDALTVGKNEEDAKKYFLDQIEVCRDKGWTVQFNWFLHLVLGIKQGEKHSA

| SMILES | IC50 [1] [nM] | IC50 [2] [nM] | EC50 [3] [nM] | IC50 [4] [nM] | IC50 [5] [nM] | lupus symptoms [6] | chemical stability [7] | plasma stability [8] | Akt phosphorylation [9] | S6 phosphorylation [9] |
| --- | --- | --- | --- | --- | --- | --- | --- | --- | --- | --- |
| Nc1nc2ccc(-c3nn(Cc4cc5ccccc5nc4CCN4CCCC4)c4ncnc(N)c34)cc2s1 [Compound 167] | < 100 | < 100 | < 100 | 100 to 1000 | < 100 |  |  |  |  |  |
| CN1CCN(CCc2nc3ccccc3cc2Cn2nc(-c3cc(O)cc(F)c3)c3c(N)ncnc32)CC1 [Compound 168] | > 1000 | > 1000 | < 100 | 100 to 1000 | < 100 |  |  |  |  |  |
| CC(=O)Nc1nc2ccc(-c3nn(Cc4cc5ccccc5nc4CCN4CCN(C)CC4)c4ncnc(N)c34)cc2s1 [Compound 169] | 100 to 1000 | 100 to 1000 | < 100 | 100 to 1000 | < 100 |  |  |  |  |  |
| CC(=O)Nc1nc2ccc(-c3nn(Cc4cc5ccccc5nc4-n4cnc(C)c4)c4ncnc(N)c34)cc2s1 [Compound 171] | < 100 | 100 to 1000 | < 100 | > 1000 | < 100 |  |  |  |  |  |
| Nc1ncnc2c1c(-c1cnn(CCO)c1)nn2Cc1cc2ccccc2nc1-c1ccccc1 [Compound 179] | > 1000 | > 1000 | 100 to 1000 | > 1000 | 100 to 1000 |  |  |  |  |  |
| Nc1ncnc2c1c(-c1cn[nH]c1)nn2Cc1cc2ccccc2nc1-c1ccccc1 [Compound 180] | 100 to 1000 | > 1000 | 100 to 1000 | > 1000 | < 100 |  |  |  |  |  |
| Nc1nc2ccc(-c3nn(Cc4cc5ccccc5nc4-c4ccccc4C(F)(F)F)c4ncnc(N)c34)cc2[nH]1 [Compound 181] | < 100 | > 1000 | 100 to 1000 | > 1000 | < 100 |  |  |  |  |  |
| CC(C)N(C)c1nc2ccccc2cc1Cn1nc(-c2ccc3nc(N)[nH]c3c2)c2c(N)ncnc21 [Compound 184] | < 100 | > 1000 | 100 to 1000 | > 1000 | < 100 |  |  |  |  |  |
| CC(=O)Nc1nc2ccc(-c3nn(Cc4cc5ccccc5nc4N4CCN(C)CC4)c4ncnc(N)c34)cc2[nH]1 [Compound 185] | > 1000 | > 1000 | < 100 | 100 to 1000 | < 100 |  |  |  |  |  |
| Nc1ncnc2c1c(/C=C1/SC(=O)NC1=O)nn2Cc1cc2ccccc2nc1-c1ccccc1F [Compound 192] | < 100 | > 1000 | 100 to 1000 | > 1000 | < 100 |  |  |  |  |  |
| CC(=O)Nc1nc2ccc(-c3nn(Cc4cc5ccccc5nc4N4CCCC4)c4ncnc(N)c34)cc2s1 [Compound 195] | < 100 | < 100 | < 100 | > 1000 | < 100 |  |  |  |  |  |
| CN1CCN(c2nc3ccccc3nc2Cn2nc(-c3ccc4nc(N)sc4c3)c3c(N)ncnc32)CC1 [Compound 199] | < 100 | 100 to 1000 | < 100 | < 100 | < 100 |  |  |  |  |  |
| CO[C@H]1C[C@@H]2CC[C@@H](C)[C@@](O)(O2)C(=O)C(=O)N2CCCC[C@H]2C(=O)O[C@H]([C@H](C)C[C@@H]2CC[C@@H](OCCO)[C@H](OC)C2)CC(=O)[C@H](C)/C=C(\C)[C@@H](O)[C@@H](OC)C(=O)[C@H](C)C[C@H](C)/C=C/C=C/C=C/1C [RAD001] |  |  |  |  |  | ameliorate lupus symptoms |  |  |  |  |
| O=C(O)CCCc1ccc(N(CCCl)CCCl)cc1 [chlorambucil] |  |  |  |  |  |  | largely hydrolyzed |  |  |  |
| CC(C)[N+](C)(CCOC(=O)C1c2ccccc2Oc2ccccc21)C(C)C [propantheline] |  |  |  |  |  |  |  | intermediate |  |  |
| CCCOc1cc(N)ccc1C(=O)OCCN(CC)CC [propoxycaine] |  |  |  |  |  |  |  | low |  |  |
| CO[C@H]1C[C@@H]2CC[C@@H](C)[C@@](O)(O2)C(=O)C(=O)N2CCCC[C@H]2C(=O)O[C@H]([C@H](C)C[C@@H]2CC[C@@H](O)[C@H](OC)C2)CC(=O)[C@H](C)/C=C(\C)[C@@H](O)[C@@H](OC)C(=O)[C@H](C)C[C@H](C)/C=C/C=C/C=C/1C [rapamycin] |  |  |  |  |  |  |  |  | enhances Akt phosphorylation | inhibits S6 phosphorylation |
